Experimental data: patent US5605929A, “Methods and compositions for inhibiting 5α-reductase activity” (priority 1995, dated 1997)
Where two headings read alike, the source gives them in different places.

What was measured:
[1] = tested on: prostate and preputial glands; assay: EGCG ip 7 days, normal and castrated rats with androgen; type: in vivo, rat; conditions: for prostate weight reduction: 5 mg/day
Protocol: Male Sprague-Dawley rats, 60±5 g body weight, were used. Rats were divided into 6 groups. Each group had 5 rats. Groups 1 and 2 were normal rats while the other 4 groups had rats castrated on the first day. […] The control rats (Group 1) received 0.1 ml of 30% ethanol.

[2] = target: T1, HIV-1 reverse transcriptase (Human immunodeficiency virus type 1 group M subtype B, UniProt P04585); conditions: cited from earlier work
T1 construct: HIV-1 reverse transcriptase

[3] = target: rat small intestinal maltase; conditions: cited from earlier work
[4] = target: T2, α-Amylase of human saliva (Homo sapiens, UniProt P0DUB6); conditions: cited from earlier work
T2 construct: α-Amylase of human saliva; host or cells: human saliva

[5] = tested on: human breast tumor cell line, MDF-7; assay: Human breast tumor growth in nude mice; type: in vivo; conditions: 1 mg/mouse/day, 2 weeks
Protocol: For breast tumor studies, human breast tumor cell line, MDF-7 (1 million cells) was injected into female nude mice. After 5 weeks, the tumor was over 1000 mm^3.

[6] = target: T3, 5α-Reductase of Rat Liver Microsomes (Rattus norvegicus, UniProt P24008); assay: [3H]4-MA binding assay, rat liver microsomes (tea catechins)
T3 sequence (P24008 1-259): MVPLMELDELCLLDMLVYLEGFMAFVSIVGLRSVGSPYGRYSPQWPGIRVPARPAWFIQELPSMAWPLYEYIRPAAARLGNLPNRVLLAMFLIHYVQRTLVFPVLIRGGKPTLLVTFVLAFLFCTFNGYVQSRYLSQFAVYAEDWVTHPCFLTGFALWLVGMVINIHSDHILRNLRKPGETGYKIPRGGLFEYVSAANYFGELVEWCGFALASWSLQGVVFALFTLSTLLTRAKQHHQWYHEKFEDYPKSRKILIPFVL
Procedure, shortened: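 Microsomes from adult female Sprague-Dawley rat liver or Rat-1A cells expressing human 5α-reductase, 25 μg protein per reaction. Incubation 30–60 min at 0 °C; microsome-bound [3H]4-MA collected on glass-fibre filters and counted. Duplicate or triplicate determinations, values based on reaction rate.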

[7] = tested on: prostate and preputial organ; assay: Catechins ip 7 days, large rats; type: in vivo, rat
Protocol: Male Sprague Dawley rats, 172±20 g body weight, were used. Each group had 5 rats. […] The control rats received 0.3 ml of 30% ethanol.

[8] = tested on: Human prostate cancer PC-3 cells; assay: PC-3 tumor growth in nude mice; type: in vivo, nude mice (human tumor)
Protocol: Human prostate cancer PC-3 cells were grown in culture medium. About one million cells were injected into male nude mice and the growth of tumors were followed. Within two weeks, the tumor grew to about 100 mm^3. […] The 3 controls received water only.

NADH:menadione reductase = conditions: 10 to 40 μM
LNCaP = assay: cells; conditions: Homo sapiens, read-out: 5α-DHT formed (% of control)
[9] = tested on: flank organs, seminal vesicles, prostate and other organs
[10] = tested on: 5α-reductase in liver and prostate; conditions: cited from earlier work
[11] = tested on: UDP-glucuronic acid:5α-DHT glucuronosyl transferase; conditions: 10 to 40 μM
[12] = tested on: human liver microsomes 5α-reductase; conditions: vs rat liver microsomes
Protocol: Briefly, the binding assay solution, in a final volume of 0.15 ml, contained microsomes (2-20 μg of protein), 0.08 μCi of [^3 H]4-MA, 0.1 mM-NADPH, 1 mM-dithiothreitol and 50 mM-potassium phosphate, pH 7.0, with or without the indicated amount of a lipid or an inhibitor preparation. Lipids were dissolved in ethanol and added in 1-5 μl volumes. Control tubes received the same amount of ethanol. After incubation at 0° C. for 1 h, the [^3 H]4-MA bound to microsomes was determined by collecting microsomes on a Whatman GF/1F glass fibre filter and washing with 10 ml of 20 mM-potassium phosphate, pH 7.0, containing 0.01% CHAPS to remove unbound [^3 H]4-MA.
Microsomes were prepared at 4° C. from a buffered 0.32M-sucrose homogenate of human liver and from the livers of adult Sprague-Dawley female rats by differential centrifugation as described previously (Liang et al., 1990), and were used in the assay of 5α-reductase activity. In some experiments, microsomes were solubilized with 0.1% polyoxyethylene ether W-1 as described previously (Liang et al., 1990), except for the substitution of polyoxyethylene ether W-1 for Lubrol-WX.

[13] = tested on: 17β-steroid dehydrogenase; assay: 4-Androstenedione formation from [3H]testosterone by PC-3 cells (17β-steroid dehydrogenase); type: cell-based, human
hamster flank organ = conditions: for Pigmented macule, right flank organ / Pigmented macule, left flank organ (vehicle): 15 days; for Pigmented macule, right flank organ: vehicle 23.5 ± 3.8
Protocol: Animals were divided into 10/group. The right flank organ was treated daily with 5 μl solution containing vehicle (ethanol) alone or γ-LA (0.5, 1, and 2 mg) for 15-25 days. The left flank organ of all animals received the same volume of vehicle.
The lengths of the long axis and the short axis of the pigmented spot (pigmented macule) were measured using a caliper with digital display (Digimatic, Mitutoyo Corp., Japan). […] The data are presented as mean ± standard deviation.

[14] = read-out: % Inhibition of [^3 H]4-MA binding

T2 sequence (P0DUB6 16-511): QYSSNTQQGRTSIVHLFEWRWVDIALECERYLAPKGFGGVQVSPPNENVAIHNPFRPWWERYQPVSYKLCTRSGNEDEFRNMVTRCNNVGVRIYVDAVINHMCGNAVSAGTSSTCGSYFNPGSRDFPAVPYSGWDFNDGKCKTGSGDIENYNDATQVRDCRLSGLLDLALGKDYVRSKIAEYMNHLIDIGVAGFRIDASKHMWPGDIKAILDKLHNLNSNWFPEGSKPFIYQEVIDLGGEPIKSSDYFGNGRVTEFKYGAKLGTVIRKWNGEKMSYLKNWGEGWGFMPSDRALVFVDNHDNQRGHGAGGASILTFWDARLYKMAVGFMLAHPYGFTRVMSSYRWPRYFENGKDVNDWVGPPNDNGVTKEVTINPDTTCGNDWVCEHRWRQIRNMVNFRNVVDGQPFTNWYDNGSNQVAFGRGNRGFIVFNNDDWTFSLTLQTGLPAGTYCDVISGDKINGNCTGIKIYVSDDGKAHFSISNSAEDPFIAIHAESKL

With `O=C(O[C@@H]1Cc2c(O)cc(O)cc2O[C@@H]1c1cc(O)c(O)c(O)c1)c1cc(O)c(O)c(O)c1` [EGCG, (-)Epigallocatechin-3-gallate] the “prostate weight reduction” value ([1]; castrated + 5α-DHT) was “no reduction”, the prostate weight reduction ([1]; castrated + testosterone) was “about 23%” and the body weight reduction ([1]; normal and castrated rats with testosterone or 5α-DHT, 7 days) was 8±1%. The prostate weight reduction ([1]; normal rats) was “about 30%”, the “pathology examination of organs and blood” value ([1]; rat, in vivo) was “did not reveal any abnormal growth or pathogenic effects” and the IC50 [2] was 0.04 µM. For the same compound, the IC50 [3] was 50 to 500 µM, the IC50 [4] was 50 to 500 µM and the tumor reduction [5] was 50%. For the same compound, the IC50 [6] was 3 µM, the inhibition at 5 µM [6, 14] was 61% and the inhibition at 10 µM [6, 14] was 74%. For the same compound, the inhibition at 20 µM [6, 14] was 79%, the inhibition at 40 µM [6, 14] was 88% and the inhibition at 200 µM [6, 14] was 93%. For the same compound, the body weight decrease ([7]; 15 mg ip/day, 7 days) was “about 15%”, the coagulating gland weight ([7]; 15 mg ip/day, 7 days) was 34 % of organ weight in normal rats and the dorsolateral prostate weight ([7]; 15 mg ip/day, 7 days) was 46 % of organ weight in normal rats. For the same compound, the kidney weight ([7]; 15 mg ip/day, 7 days) was 74 % of organ weight in normal rats, the preputial gland weight ([7]; 15 mg ip/day, 7 days) was 35 % of organ weight in normal rats and the seminal vesicle weight ([7]; 15 mg ip/day, 7 days) was 41 % of organ weight in normal rats. For the same compound, the testis weight ([7]; 15 mg ip/day, 7 days) was 84 % of organ weight in normal rats, the ventral prostate weight ([7]; 15 mg ip/day, 7 days) was 46 % of organ weight in normal rats and the final body weight ([7]; 15 mg ip/day, 7 days, normal 232±10 g) was 147 ± 14 g. For the same compound, the “final body weight reduction vs normal rats” value ([7]; end of study) was “about 36%”, the tumor size ([8]; FIG. 33, 1 mg/day, two weeks, controls about 450) was “smaller than 100 mm^3” and the tumor size ([8]; FIG. 34, 1400 mm^3 tumor, after 2 weeks of EGCG) was “about 850 mm^3”. The tumor size ([8]; FIG. 34, 1400 mm^3 tumor, after another 2 weeks of EGCG) was “about 500 mm^3”, the tumor size ([8]; FIG. 34, during the 2 week injection) was “about 100 mm^3” and the tumor size ([8]; FIG. 34, within 2 weeks after injection stopped) was “about 800 mm^3”. The tumor size ([8]; FIG. 34, within 3 weeks after injection stopped) was “over 1200 mm^3”.

In the case of `CCCCC/C=C\C/C=C\C/C=C\CCCCC(=O)O` [γ-Linolenic acid, γ-linolenic acid], the “effect on NADH:menadione reductase” value (NADH:menadione reductase) is reported as “did not affect”, the activity at 50 µM (LNCaP) is reported as 27% and the activity at 100 µM (LNCaP) is reported as 9 ± 4%. The “left flank organ area” value ([9]; after injections, control 12.9±2.2) was 9.9±2.4, the “right flank organ area” value ([9]; after injections, control 14.6±1.5) was 9.8±2.5 mm^2 and the adrenal weight ([9]; control 0.022±0.004 g) was 0.021 ± 0.004 g. The “seminal vesicles and prostate weight” value ([9]; control 0.156±0.026 g) was 0.106 ± 0.022 g, the spleen weight ([9]; control 0.157±0.027) was 0.1867±0.048 and the kidney weight ([9]; control 1.060±0.086 g) was 1.121 ± 0.073 g. For the same compound, the “inhibition of 5α-reductase activity in liver and prostate” value [10] was “inhibit 5α-reductase activity in both the liver and prostate”, the “effect on UDP-glucuronic acid:5α-DHT glucuronosyl transferase” value [11] was “did not affect” and the “inhibition of NADPH-dependent [^3 H]4-MA binding” value [12] was “to the same degree as in experiments with rat liver microsomes”. For the same compound, the “4-Androstendione formed (% of control)” value ([13]; 1 μM) was 102 ± 6 % of control, the “4-Androstendione formed (% of control)” value ([13]; 5 μM) was 110 ± 1 % of control and the “4-Androstendione formed (% of control)” value ([13]; 20 μM) was 99 ± 2 % of control. The “effect on metabolism of testosterone to 4-androstenedione (17β-steroid dehydrogenase)” value ([13]; words) was “did not affect”, the “growth rate of pigmented macules” value (hamster flank organ; FIG. 32, 1 and 2 mg) was “dramatically reduced” and the “change of pigmented macule (#)” value (hamster flank organ; Table 7, 0.5 mg) was -34%. For the same compound, the “change of pigmented macule (*)” value (hamster flank organ; Table 7, 0.5 mg) was -19%, the “Pigmented macule, right flank organ” value (hamster flank organ; Table 7, 0.5 mg/day) was 19.0 ± 3.6 mm^2 and the “change of pigmented macule (#)” value (hamster flank organ; Table 7, 1.0 mg) was -63%. For the same compound, the “change of pigmented macule (*)” value (hamster flank organ; Table 7, 1.0 mg) was -54%, the “Pigmented macule, right flank organ” value (hamster flank organ; Table 7, 1.0 mg/day) was 10.8 ± 2.7 mm^2 and the “Pigmented macule, left flank organ (vehicle)” value (hamster flank organ; Table 7, group 2, right treated with 0.5 mg) was 28.6 ± 4.0 mm^2. The “Pigmented macule, left flank organ (vehicle)” value (hamster flank organ; Table 7, group 3, right treated with 1.0 mg) was 29.2 ± 4.8 mm^2 and the “effect on contralateral pigmented macules” value (hamster flank organ; hamster, in vivo) was “not affected”.
